Legend:
[1] = tested on: IL-1β; test: Cytokine ELISA in CIA mice, day 60: IL-1β; format: in vivo
From the text: (§1) With continued reference to FIG. 1, in some embodiments, administration 116 may be done to an animal. As a non-limiting example, the animal may include a mouse, a fish, a rabbit, human, and the like. As a non-limiting example, administration 116 of composition of the engineered virus-based nanoparticle for a treatment of an autoimmune condition may be done to dilute, brown, and non-agouti (DBA) mice based on their susceptibility to collagen-induced arthritis (CIA). Female DBA/1 mice 6 to 8 weeks of age may be maintained under specific pathogen-free conditions. CIA may be induced by the intradermal tail base injection of 100 μg of chicken type II collagen (Sigma-Aldrich) as previously described. Five mice per group may be immunized on days 0 and 21 to induce arthritis. The onset of disease may be confirmed on the day that swelling or erythema may be observed in any paw, typically 4 to 10 days after the second immunization. […] CIA may be assessed using a macroscopic score system based on the visual identification of arthritic limbs. The clinical severity of arthritis may be evaluated as follows: Each mouse may be inspected every 2 to 3 days for three different parameters: (i) swelling of the hind ankle and foot, measured with calipers; (ii) erythema of each leg; and (iii) swelling of the fingers. The RA index for each mouse was expressed as the mean of the three scores from the individual parameters. At the end of the experiment (60 days), we determined the proportion of CD25+Foxp3+ cells in the lymph nodes and measured cytokine titers in the lymph nodes, joints, and serum.
(§2) With continued reference to FIG. 1, in some embodiments, processor 104 may determine critical administration 124 as a function of a cytokine profile and a proportion of CD25^+ Foxp3^+ cells. […] In some embodiments, to quantify cytokines in DBA mice, joint tissues may be pulverized and resuspended in 1 ml of lysis medium per 100-mg joint weight for 60 min at 37′C, followed by centrifugation to remove debris. […]

[2] = tested on: IL-17A; test: Cytokine ELISA in CIA mice, day 60: IL-17A; format: in vivo
From the text: as §1, §2

[3] = joint supernatant, CIA mice, day 60, mean n=3
[4] = lymph node supernatant, CIA mice, day 60, mean n=3
[5] = serum pooled from five CIA mice, day 60

SMILES: C[C@@H]1C[C@H]2[C@@H]3CCC4=CC(=O)C=C[C@]4(C)[C@@]3(F)[C@@H](O)C[C@]2(C)[C@@]1(O)C(=O)CO [Dexamethasone, dexamethasone]
- IL-1β J [1, 3]: 38.43 pg/mL
- IL-1β LN [1, 4]: 65.63 pg/mL
- IL-1β S [1, 5]: 26.6 pg/mL
- IL-17A J [2, 3]: 1219.43 pg/mL
- IL-17A LN [2, 4]: 1540.40 pg/mL
- IL-17A S [2, 5]: 313.8 pg/mL

From patent US12527849B2, “Apparatus for determining administration form of a composition of an engineered virus-based nanoparticle for a treatment of an autoimmune condition” (Diamante Srl, priority 2021, dated 2026)
